pIC50: −log10 of the molar value.
What follows are compounds tested against T1, human DGAT1 enzyme (Homo sapiens, UniProt O75907) (assay: in vitro DGAT1 inhibition assay (microsomes, [14C]-palmitoyl-CoA, scintillation proximity)). Settings: human DGAT1 expressed in Sf9 insect cell microsomes; 2 hours at room temperature; read-out: hDGAT IC50.
T1 construct: made in house; host or cells: Sf9 insect cells (microsomes)
T1 sequence (O75907 1-488): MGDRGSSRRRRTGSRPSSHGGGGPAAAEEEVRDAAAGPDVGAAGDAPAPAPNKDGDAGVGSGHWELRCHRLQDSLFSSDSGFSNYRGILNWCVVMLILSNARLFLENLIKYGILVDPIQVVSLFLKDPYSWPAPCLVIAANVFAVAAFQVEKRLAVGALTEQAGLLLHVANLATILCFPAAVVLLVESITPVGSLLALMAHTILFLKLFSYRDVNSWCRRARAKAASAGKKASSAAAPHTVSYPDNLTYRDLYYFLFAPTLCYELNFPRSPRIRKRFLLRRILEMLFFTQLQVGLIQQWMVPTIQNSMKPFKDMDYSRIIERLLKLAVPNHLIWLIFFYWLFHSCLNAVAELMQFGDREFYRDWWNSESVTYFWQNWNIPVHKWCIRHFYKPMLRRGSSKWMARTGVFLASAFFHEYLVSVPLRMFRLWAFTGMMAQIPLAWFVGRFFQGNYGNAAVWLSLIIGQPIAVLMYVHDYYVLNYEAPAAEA
Type: biochemical
Protocol: A useful assay to determine the DGAT inhibitory activity of the inventive compounds is described below:
The in vitro assay to identify DGAT1 inhibitors uses human DGAT1 enzyme expressed in Sf9 insect cells prepared as microsomes. The reaction is initiated by the addition of the combined substrates 1,2-dioleoyl-sn-glycerol and [^14C]-palmitoyl-CoA and incubated with test compounds and microsomal membranes for 2 hours at room temperature. The assay is stopped by adding 0.5 mg wheat germ agglutinin beads in assay buffer with 1% Brij-35 and 1% 3-cholamidopropyldimethyl-ammonio-1-propane sulfonate. Plates are sealed with TopSeal and incubated for 18 hours to allow the radioactive triglyceride product to come into proximity with the bead. Plates are read on a TopCount instrument.
Percent inhibition was calculated as the percent of (test compound inhibition minus non-specific binding) relative to (total binding minus non-specific binding). IC50 values were determined by curve fitting the data to a Sigmoidal dose-response in GraphPad Prism utilizing the following equation:
Y=A+(B−A)/(1+10̂((Log IC50−X))),
where A and B are the bottom and top of the curve (highest and lowest inhibition), respectively, and X is the logarithm of concentration.

First: O=C(Nc1ccc(N2CCN(C(=O)Nc3ccccc3F)CC2)nc1)c1oc(NC2CCN(Cc3ccccc3)C2)nc1C(F)(F)F (stereo not drawn) [Compound 307, 2-(1-benzylpyrrolidin-3-ylamino)-N-(6-(4-(2-fluorophenylcarbamoyl)piperazin-1-yl)pyridin-3-yl)-4-(trifluoromethyl)oxazole-5-carboxamide]
Second: CN(CCc1ccccc1)c1nc(C(F)(F)F)c(C(=O)Nc2ccc(N3CCN(C(=O)Nc4ccccc4F)CC3)nc2)o1 [Compound 316, N-(6-(4-(2-fluorophenylcarbamoyl)piperazin-1-yl)pyridin-3-yl)-2-(methyl(phenethyl)amino)-4-(trifluoromethyl)oxazole-5-carboxamide]
The pIC50 of the first is lower: 6.30 to 7.00 for the first, 7.00 to 7.96 for the second.

C[C@@H]1CN(C(=O)Nc2ccccc2F)CCN1c1ccc(NC(=O)c2oc(N3CCC(c4ccccc4)CC3)nc2C(F)(F)F)cn1 [Compound 310, (R)—N-(6-(4-(2-fluorophenylcarbamoyl)-2-methylpiperazin-1-yl)pyridin-3-yl)-2-(4-phenylpiperidin-1-yl)-4-(trifluoromethyl)oxazole-5-carboxamide] and O=C(Nc1cnc(N2CCN(C(=O)Nc3ccccc3F)CC2)nc1)c1oc(N2CCC(c3ccccc3)CC2)nc1C(F)(F)F [Compound 327, N-(2-(4-(2-fluorophenylcarbamoyl)piperazin-1-yl)pyrimidin-5-yl)-2-(4-phenylpiperidin-1-yl)-4-(trifluoromethyl)oxazole-5-carboxamide] fall in the same range of pIC50: 6.30 to 7.00 for the first, 6.30 to 7.00 for the second.

CC1CCCN(c2nc(C(F)(F)F)c(C(=O)Nc3ccc(N4CCN(C(=O)Nc5ccccc5F)C[C@@H]4C)nc3)o2)C1 (stereo partly drawn) [Compound 315, N-(6-((S)-4-(2-fluorophenylcarbamoyl)-2-methylpiperazin-1-yl)pyridin-3-yl)-2-(3-methylpiperidin-1-yl)-4-(trifluoromethyl)oxazole-5-carboxamide] and Cc1cc(N2CCN(C(=O)Nc3ccccc3F)CC2)ncc1NC(=O)c1oc(N2CCCC(C)C2)nc1C(F)(F)F (stereo not drawn) [Compound 321, N-(6-(4-(2-fluorophenylcarbamoyl)piperazin-1-yl)-4-methylpyridin-3-yl)-2-(3-methylpiperidin-1-yl)-4-(trifluoromethyl)oxazole-5-carboxamide] fall in the same range of pIC50: 6.30 to 7.00 for the first, 6.30 to 7.00 for the second.

Compared with CN(CC1(c2ccccc2)CC1)c1nc(C(F)(F)F)c(C(=O)Nc2ccc(N3CCN(C(=O)Nc4ccccc4F)CC3)nc2)o1 [Compound 317, N-(6-(4-(2-fluorophenylcarbamoyl)piperazin-1-yl)pyridin-3-yl)-2-(methyl((1-phenylcyclopropyl)methyl)amino)-4-(trifluoromethyl)oxazole-5-carboxamide], O=C(Nc1ccc(N2CCN(C(=O)Nc3ccccc3F)CC2)nc1)c1oc(N2CCC(O)(c3ccccc3)CC2)nc1C(F)(F)F [Compound 324, N-(6-(4-(2-fluorophenylcarbamoyl)piperazin-1-yl)pyridin-3-yl)-2-(4-hydroxy-4-phenylpiperidin-1-yl)-4-(trifluoromethyl)oxazole-5-carboxamide] is lower in pIC50: 7.00 to 7.96 for the first, 6.30 to 7.00 for the second.

O=C(Nc1ccc(N2CCN(C(=O)Nc3ccccc3F)CC2)nc1)c1oc(N2CCC(F)(c3ccccc3)CC2)nc1C(F)(F)F [Compound 325, N-(6-(4-(2-fluorophenylcarbamoyl)piperazin-1-yl)pyridin-3-yl)-2-(4-fluoro-4-phenylpiperidin-1-yl)-4-(trifluoromethyl)oxazole-5-carboxamide] and O=C(Nc1ccc(N2CCN(C(=O)Nc3ccccc3F)CC2)nc1)c1oc(N2CCN(c3ccccc3F)CC2)nc1C(F)(F)F [Compound 336, 2-(4-(2-fluorophenyl)piperazin-1-yl)-N-(6-(4-(2-fluorophenylcarbamoyl)-piperazin-1-yl)pyridin-3-yl)-4-(trifluoromethyl)oxazole-5-carboxamide] fall in the same range of pIC50: 6.30 to 7.00 for the first, 6.30 to 7.00 for the second.

Compared with CC1CCCN(c2nc(C(F)(F)F)c(C(=O)Nc3ccc(-c4ccc(C(=O)NCCC(=O)O)cc4)cc3)o2)C1 (stereo not drawn) [Compound 328, 3-(4′-(2-(3-methylpiperidin-1-yl)-4-(trifluoromethyl)oxazole-5-carboxamido)biphenyl-4-ylcarboxamido)propanoic acid], Cc1ccccc1NC(=O)c1ccc(-c2ccc(NC(=O)c3oc(N4CCCC(C)C4)nc3C(F)(F)F)cn2)cc1 (stereo not drawn) [Compound 333, 2-(3-methylpiperidin-1-yl)-N-(6-(4-(o-tolylcarbamoyl)phenyl)pyridin-3-yl)-4-(trifluoromethyl)oxazole-5-carboxamide] is higher in pIC50: 6.30 to 7.00 for the first, 7.00 to 7.96 for the second. The second is the more potent here.

O=C(Nc1ccc(N2CCN(C(=O)Nc3ccccc3F)CC2)nc1)c1oc(N2CCCCCC2)nc1C(F)(F)F [Compound 334, 2-(azepan-1-yl)-N-(6-(4-(2-fluorophenylcarbamoyl)piperazin-1-yl)pyridin-3-yl)-4-(trifluoromethyl)oxazole-5-carboxamide] and O=C(Nc1ccc(N2CCN(C(=O)Nc3ccccc3F)CC2)nc1)c1oc(N2CCc3ccccc3C2)nc1C(F)(F)F [Compound 335, 2-(3,4-dihydroisoquinolin-2(1H)-yl)-N-(6-(4-(2-fluorophenylcarbamoyl)-piperazin-1-yl)pyridin-3-yl)-4-(trifluoromethyl)oxazole-5-carboxamide] fall in the same range of pIC50: 7.00 to 7.96 for the first, 7.00 to 7.96 for the second.

For CC1CCCN(c2nc(C(F)(F)F)c(C(=O)Nc3ccc(N4CCN(C(=O)[C@H]5CC[C@H](C(=O)O)CC5)CC4)nc3)o2)C1 (stereo partly drawn) [Compound 341, trans-4-[[4-[5-[[[2-(3-methyl-1-piperidinyl)-4-(trifluoromethyl)-5-oxazolyl]carbonyl]amino]-2-pyridinyl]-1-piperazinyl]carbonyl]cyclohexanecarboxylic acid], the pIC50 was 6.30 to 7.00.
